Results: patent publication US20230117034A1, “PYRAZOLOTRIAZINES” (Bayer Aktiengesellschaft, priority 2019, published 2023)

Assays:
[1] = molecular target: T1, CYCLIN K (nuclear staining in CAL-120 cells) (Homo sapiens, UniProt O75909); assay: CYCLIN K nuclear protein level: immunofluorescence high content analysis (CAL-120); format: cell-based; settings: 24 h, 50% reduction of nuclear CCNK staining intensity, median, read-out: CYCLIN K degradation IF, DC50-[mol/l] (median)
T1 construct: endogenous in cells; host or cells: CAL-120 human breast cancer cells (DSMZ ACC 459)
T1 sequence (O75909 whole entry): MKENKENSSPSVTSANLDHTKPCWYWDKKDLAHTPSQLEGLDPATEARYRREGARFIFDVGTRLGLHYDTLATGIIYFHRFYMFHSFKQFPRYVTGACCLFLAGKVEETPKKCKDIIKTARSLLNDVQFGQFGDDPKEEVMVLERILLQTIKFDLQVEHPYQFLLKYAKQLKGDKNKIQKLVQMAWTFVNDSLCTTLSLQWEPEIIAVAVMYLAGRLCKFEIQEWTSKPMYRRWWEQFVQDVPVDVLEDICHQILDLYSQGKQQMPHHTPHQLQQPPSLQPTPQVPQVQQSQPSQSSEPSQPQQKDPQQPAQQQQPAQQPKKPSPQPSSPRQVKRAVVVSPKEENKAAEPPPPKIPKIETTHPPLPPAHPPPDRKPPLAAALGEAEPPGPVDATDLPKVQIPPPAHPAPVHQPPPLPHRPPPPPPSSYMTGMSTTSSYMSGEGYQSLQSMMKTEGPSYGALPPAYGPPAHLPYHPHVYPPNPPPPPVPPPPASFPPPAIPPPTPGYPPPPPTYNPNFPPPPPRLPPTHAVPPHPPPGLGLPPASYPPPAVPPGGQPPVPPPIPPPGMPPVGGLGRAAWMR
T1 sequence (Q9NYV4 whole entry partner): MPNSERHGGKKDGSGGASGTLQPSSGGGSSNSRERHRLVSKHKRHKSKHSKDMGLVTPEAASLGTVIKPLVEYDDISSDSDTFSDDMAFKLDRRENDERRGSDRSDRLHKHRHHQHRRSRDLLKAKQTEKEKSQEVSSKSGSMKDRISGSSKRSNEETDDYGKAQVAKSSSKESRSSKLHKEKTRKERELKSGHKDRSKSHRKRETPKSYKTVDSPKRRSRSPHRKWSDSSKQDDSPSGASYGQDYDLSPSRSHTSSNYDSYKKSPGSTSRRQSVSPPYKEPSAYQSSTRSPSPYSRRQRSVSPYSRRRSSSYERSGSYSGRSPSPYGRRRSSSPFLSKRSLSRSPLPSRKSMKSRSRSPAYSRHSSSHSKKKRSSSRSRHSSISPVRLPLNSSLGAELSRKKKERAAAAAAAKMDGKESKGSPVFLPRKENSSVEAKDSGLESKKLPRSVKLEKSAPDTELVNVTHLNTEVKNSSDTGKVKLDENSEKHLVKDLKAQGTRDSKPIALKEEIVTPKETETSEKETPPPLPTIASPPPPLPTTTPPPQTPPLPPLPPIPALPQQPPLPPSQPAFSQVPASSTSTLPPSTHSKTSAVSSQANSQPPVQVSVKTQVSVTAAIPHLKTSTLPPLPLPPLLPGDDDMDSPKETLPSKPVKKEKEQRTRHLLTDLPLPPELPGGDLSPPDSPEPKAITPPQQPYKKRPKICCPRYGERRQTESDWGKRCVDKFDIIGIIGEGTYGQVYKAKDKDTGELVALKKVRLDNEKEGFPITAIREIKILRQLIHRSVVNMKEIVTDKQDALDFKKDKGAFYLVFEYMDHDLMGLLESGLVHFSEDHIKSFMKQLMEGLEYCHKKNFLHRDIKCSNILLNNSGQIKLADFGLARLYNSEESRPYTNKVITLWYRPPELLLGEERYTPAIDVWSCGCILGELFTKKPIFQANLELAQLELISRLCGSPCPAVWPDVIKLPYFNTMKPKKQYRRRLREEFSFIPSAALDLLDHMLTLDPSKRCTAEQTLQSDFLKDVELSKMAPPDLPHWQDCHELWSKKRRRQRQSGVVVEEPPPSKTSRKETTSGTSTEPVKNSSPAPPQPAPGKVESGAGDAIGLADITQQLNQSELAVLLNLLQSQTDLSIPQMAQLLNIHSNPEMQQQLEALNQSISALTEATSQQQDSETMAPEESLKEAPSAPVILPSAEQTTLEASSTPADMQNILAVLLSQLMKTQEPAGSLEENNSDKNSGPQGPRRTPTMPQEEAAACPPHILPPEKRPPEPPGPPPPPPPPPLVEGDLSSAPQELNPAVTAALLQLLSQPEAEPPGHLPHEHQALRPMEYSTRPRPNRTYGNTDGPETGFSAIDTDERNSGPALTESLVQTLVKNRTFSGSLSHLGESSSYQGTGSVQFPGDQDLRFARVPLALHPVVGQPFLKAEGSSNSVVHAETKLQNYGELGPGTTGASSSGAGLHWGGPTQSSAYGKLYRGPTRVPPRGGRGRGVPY
How it was run: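 CAL-120 breast cancer cells treated in dose-response for 24 h at 37 °C, PFA-fixed and immunostained for cyclin K with Hoechst counterstain. Confocal imaging quantified nuclear intensity; DC50 is the concentration giving 50% reduction of nuclear CCNK staining, normalized to DMSO and control.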

[2] = molecular target: T2, CDK2/CycE (Homo sapiens, UniProt P24941); assay: CDK2/CycE kinase assay (TR-FRET, 2 mM ATP); format: biochemical; settings: 2 mM ATP (high ATP); median; read-out: CDK2/CyclinE, 2 mM ATP (high ATP), IC50 (median)
T2 construct: purchased ProQinase GmbH (Freiburg, Germany); host or cells: insect cells (Sf9)
How it was run: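 GST-tagged human CDK2 and CycE from Sf9 cells, about 10 ng/ml, pre-incubated 15 min at 22 °C with compound in Tris/HCl pH 8.0 buffer. Reaction with 2 mM ATP and 0.75 µM biotinylated peptide for 25 min at 22 °C. Phospho-RB antibody TR-FRET (665/620 nm ratio) read after 1 h; data normalised to no-inhibitor and no-enzyme controls.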

[3] = system: MDA-MB-231, human breast cancer cells; assay: Proliferation assay MDA-MB-231 (crystal violet, 4 days); format: cell-based; settings: Homo sapiens, MDA-MB-231, 96 h, MDA-MB-231 cells, median, read-out: Prolif-MDA MB-231, IC50-[mol/l] (median)
How it was run: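 CAL-120 or MDA-MB-231 cells grown 24 h, then exposed 4 days to compound (0.01–10 micromol/L, 0.1% DMSO). Crystal violet staining, absorbance at 595 nm, normalised to a zero-point plate (0%) and untreated cells (100%); IC50 by 4-parameter fit.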

`C[C@@H]1CN(c2nc(NCc3nc4ccccc4[nH]3)n3ncc(Br)c3n2)C[C@H](C)O1` [Example 73, N-[(1H-benzimidazol-2-yl)methyl]-8-bromo-2-[(2R,6S)-2,6-dimethylmorpholin-4-yl]pyrazolo[1,5-a][1,3,5]triazin-4-amine] gave a DC50 [1] of 0.735 nM and an IC50 [2] of 6090 nM.
For `COc1ccccc1-c1cnc(CNc2nc(N3CCOCC3)nc3c(Br)cnn23)[nH]1` [Example 87, 8-bromo-N-{[5-(2-methoxyphenyl)-1H-imidazol-2-yl]methyl}-2-(morpholin-4-yl)pyrazolo[1,5-a][1,3,5]triazin-4-amine], the DC50 [1] was 0.667 nM and the IC50 [2] was 2550 nM.
`Brc1cnn2c(NCc3nnc(-c4ccccc4)[nH]3)nc(N3CCCC3)nc12` [Example 64, 8-bromo-N-[(5-phenyl-4H-1,2,4-triazol-3-yl)methyl]-2-(pyrrolidin-1-yl)pyrazolo[1,5-a][1,3,5]triazin-4-amine] gave a DC50 [1] of 4.89 nM and an IC50 [2] of 4660 nM.
Work on `FC(F)(F)Oc1ccccc1-c1cnc(CNc2nc(N3CCOCC3)nc3c(Br)cnn23)[nH]1` [Example 89, 8-bromo-2-(morpholin-4-yl)-N-({5-[2-(trifluoromethoxy)phenyl]-1H-imidazol-2-yl}methyl)pyrazolo[1,5-a][1,3,5]triazin-4-amine] yielded a DC50 [1] of 1.43 nM and an IC50 [2] of 9870 nM.
Compound `FC(F)(F)Oc1ccccc1-c1nnc(CNc2nc(N3CCOCC3)nc3c(Br)cnn23)[nH]1` [Example 74, 8-bromo-2-(morpholin-4-yl)-N-({5-[2-(trifluoromethoxy)phenyl]-4H-1,2,4-triazol-3-yl}methyl)pyrazolo[1,5-a][1,3,5]triazin-4-amine] has an IC50 [2] of 18200 nM.
`OC[C@H]1CCCCN1c1nc(NCc2nnc(-c3ccccc3)[nH]2)n2ncc(Br)c2n1` [Example 71, [(2R)-1-(8-bromo-4-{[(5-phenyl-4H-1,2,4-triazol-3-yl)methyl]amino}pyrazolo[1,5-a][1,3,5]triazin-2-yl)piperidin-2-yl]methanol] showed a DC50 [1] of 2.77 nM and an IC50 [2] of 2230 nM.
`Fc1ccccc1-c1nnc(CNc2nc(N3CCOCC3)nc3c(Br)cnn23)[nH]1` [Example 75, 8-bromo-N-{[5-(2-fluorophenyl)-4H-1,2,4-triazol-3-yl]methyl}-2-(morpholin-4-yl)pyrazolo[1,5-a][1,3,5]triazin-4-amine] was tested, and the DC50 [1] was 8.7 nM and the IC50 [2] was 2500 nM.
In the case of `FC(F)(F)c1ccccc1-c1cnc(CNc2nc(N3CCOCC3)nc3c(Br)cnn23)[nH]1` [Example 88, 8-bromo-2-(morpholin-4-yl)-N-({5-[2-(trifluoromethyl)phenyl]-1H-imidazol-2-yl}methyl)pyrazolo[1,5-a][1,3,5]triazin-4-amine], the DC50 [1] is reported as 1.16 nM and the IC50 [2] is reported as 8550 nM.
Work on `FC(F)(F)c1cccc(-c2cnc(CNc3nc(N4CCOCC4)nc4c(Br)cnn34)[nH]2)c1` [Example 83, 8-bromo-2-(morpholin-4-yl)-N-({5-[3-(trifluoromethyl)phenyl]-1H-imidazol-2-yl}methyl)pyrazolo[1,5-a][1,3,5]triazin-4-amine] yielded a DC50 [1] of 1.78 nM and an IC50 [2] of 7660 nM.
For `Fc1cccc(-c2cnn3c(NCc4nc5ccccc5[nH]4)nc(N4CCOCC4)nc23)c1` [Example 91, N-[(1H-benzimidazol-2-yl)methyl]-8-(3-fluorophenyl)-2-(morpholin-4-yl)pyrazolo[1,5-a][1,3,5]triazin-4-amine], the DC50 [1] was 19.6 nM and the IC50 [2] was greater than 20000 nM.
Work on `Cc1ccccc1-c1cnc(CNc2nc(N3CCOCC3)nc3c(Br)cnn23)[nH]1` [Example 85, 8-bromo-N-{[5-(2-methylphenyl)-1H-imidazol-2-yl]methyl}-2-(morpholin-4-yl)pyrazolo[1,5-a][1,3,5]triazin-4-amine] yielded a DC50 [1] of 1.2 nM and an IC50 [2] of 4520 nM.
For `Brc1cnn2c(NCc3ncc(-c4cccnc4)[nH]3)nc(N3CCOCC3)nc12` [Example 84, 8-bromo-2-(morpholin-4-yl)-N-{[5-(pyridin-3-yl)-1H-imidazol-2-yl]methyl}pyrazolo[1,5-a][1,3,5]triazin-4-amine], the DC50 [1] was 11.8 nM and the IC50 [2] was 4840 nM.
Compound `O[C@@H]1CCN(c2nc(NCc3nc4ccccc4[nH]3)n3ncc(Br)c3n2)C1` [Example 202, (3R)-1-(4-{[(1H-benzimidazol-2-yl)methyl]amino}-8-bromopyrazolo[1,5-a][1,3,5]triazin-2-yl)pyrrolidin-3-ol] has an IC50 [3] of 295 nM and an IC50 [2] of 10500 nM.
`FC(F)(F)Oc1cccc(-c2cnc(CNc3nc(N4CCOCC4)nc4c(Br)cnn34)[nH]2)c1` [Example 82, 8-bromo-2-(morpholin-4-yl)-N-({5-[3-(trifluoromethoxy)phenyl]-1H-imidazol-2-yl}methyl)pyrazolo[1,5-a][1,3,5]triazin-4-amine] was tested, and the DC50 [1] was 14.2 nM and the IC50 [2] was 11600 nM.
Compound `CC(C)c1cnn2c(NCc3nc4ccccc4[nH]3)nc(N3CCN(C)CC3)nc12` [Example 2, N-[(1H-benzimidazol-2-yl)methyl]-2-(4-methylpiperazin-1-yl)-8-(propan-2-yl)pyrazolo[1,5-a][1,3,5]triazin-4-amine] has a DC50 [1] of 5.04 nM and an IC50 [2] of 11100 nM.
Work on `CC(C)c1cnn2c(NCc3nc4ccccc4[nH]3)nc(N(C)C)nc12` [Example 3, N^4-[(1H-benzimidazol-2-yl)methyl]-N^2,N^2-dimethyl-8-(propan-2-yl)pyrazolo[1,5-a][1,3,5]triazine-2,4-diamine] yielded an IC50 [2] greater than 20000 nM.
Compound `Clc1ccc(-c2cnc(CNc3nc(N4CCOCC4)nc4c(Br)cnn34)[nH]2)cc1` [Example 72, 8-bromo-N-{[5-(4-chlorophenyl)-1H-imidazol-2-yl]methyl}-2-(morpholin-4-yl)pyrazolo[1,5-a][1,3,5]triazin-4-amine] has a DC50 [1] of 11.4 nM and an IC50 [2] of 4350 nM.
`Brc1cnn2c(NCc3nnc(-c4ccccc4)[nH]3)nc(N3CC4(COC4)C3)nc12` [Example 65, 8-bromo-2-(2-oxa-6-azaspiro[3.3]heptan-6-yl)-N-[(5-phenyl-4H-1,2,4-triazol-3-yl)methyl]pyrazolo[1,5-a][1,3,5]triazin-4-amine] showed a DC50 [1] of 16.4 nM and an IC50 [2] greater than 20000 nM.
For `COC(=O)C1CCN(c2nc(NCc3nnc(-c4ccccc4)[nH]3)n3ncc(Br)c3n2)CC1` [Example 77, methyl 1-(8-bromo-4-{[(5-phenyl-4H-1,2,4-triazol-3-yl)methyl]amino}pyrazolo[1,5-a][1,3,5]triazin-2-yl)piperidine-4-carboxylate], the IC50 [2] was 11100 nM.
For `Fc1ccc2[nH]c(CNc3nc(N4CCOCC4)nc4c(-c5cnn(C(F)F)c5)cnn34)nc2c1F` [Example 422, N-[(4,5-difluoro-1H-benzimidazol-2-yl)methyl]-8-[1-(difluoromethyl)-1H-pyrazol-4-yl]-2-(morpholin-4-yl)pyrazolo[1,5-a][1,3,5]triazin-4-amine], the IC50 [3] was 20.1 nM and the IC50 [2] was greater than 20000 nM.
With `Clc1ccccc1-c1nnc(CNc2nc(N3CCOCC3)nc3c(Br)cnn23)[nH]1` [Example 69, 8-bromo-N-{[5-(2-chlorophenyl)-4H-1,2,4-triazol-3-yl]methyl}-2-(morpholin-4-yl)pyrazolo[1,5-a][1,3,5]triazin-4-amine] the IC50 [2] was 12100 nM.
Work on `CC(C)c1cnn2c(NCc3nc4ccccc4[nH]3)nc(N3CCOC(C)(C)C3)nc12` [Example 12, N-[(1H-benzimidazol-2-yl)methyl]-2-(2,2-dimethylmorpholin-4-yl)-8-(propan-2-yl)pyrazolo[1,5-a][1,3,5]triazin-4-amine] yielded an IC50 [3] of 373 nM and an IC50 [2] greater than 16500 nM.
